# Assay results taken from patent US9776972B2, “Pyrazole derivatives as arginine methyltransferase inhibitors and uses thereof” (priority 2013, dated 2017).
# Counter-ions that a name gives are not always drawn.
# Experiments:
# human PRMT6 = target: T1, human PRMT6 (Homo sapiens, UniProt Q96LA8); test: PRMT6 Biochemical Assay (3H-SAM Flashplate, peptide substrate); conditions: Biochemical IC50 PRMT6, single experiment or average of multiple experiments
# T1 construct: Flag-PRMT6-His; made in house; host or cells: HEK 293F cells (BacMam baculovirus)
# T1 sequence (Q96LA8 with tags, fused parts or gaps): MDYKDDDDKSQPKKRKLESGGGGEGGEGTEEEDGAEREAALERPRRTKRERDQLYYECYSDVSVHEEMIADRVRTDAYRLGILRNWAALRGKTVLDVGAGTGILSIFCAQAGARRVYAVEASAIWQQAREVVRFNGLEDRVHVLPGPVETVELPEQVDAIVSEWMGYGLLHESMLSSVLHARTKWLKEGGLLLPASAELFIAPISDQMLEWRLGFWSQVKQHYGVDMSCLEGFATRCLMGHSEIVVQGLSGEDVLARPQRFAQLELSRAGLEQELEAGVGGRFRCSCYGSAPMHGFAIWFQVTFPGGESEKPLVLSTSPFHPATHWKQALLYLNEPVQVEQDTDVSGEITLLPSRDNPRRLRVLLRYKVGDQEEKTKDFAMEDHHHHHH
# How it was run: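 Flag-PRMT6-His, expressed in mammalian cells from a BacMam vector, was preincubated with compound for 30 min at room temperature in Bicine pH 7.6 buffer with TCEP, BSG and Tween 20. Reactions were started with ³H-SAM and a biotinylated histone H4 36-50 peptide, then stopped with cold SAM (400 uM final). Labeled peptide was captured on streptavidin Flashplates, counted, and fitted to a 3- or 4-parameter curve.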
# human PRMT8 = human PRMT8 (Homo sapiens, UniProt Q9NR22); test: PRMT8 Biochemical Assay (3H-SAM Flashplate, peptide substrate); conditions: single experiment or average of multiple experiments
# human PRMT8, sequence (Q9NR22 whole entry): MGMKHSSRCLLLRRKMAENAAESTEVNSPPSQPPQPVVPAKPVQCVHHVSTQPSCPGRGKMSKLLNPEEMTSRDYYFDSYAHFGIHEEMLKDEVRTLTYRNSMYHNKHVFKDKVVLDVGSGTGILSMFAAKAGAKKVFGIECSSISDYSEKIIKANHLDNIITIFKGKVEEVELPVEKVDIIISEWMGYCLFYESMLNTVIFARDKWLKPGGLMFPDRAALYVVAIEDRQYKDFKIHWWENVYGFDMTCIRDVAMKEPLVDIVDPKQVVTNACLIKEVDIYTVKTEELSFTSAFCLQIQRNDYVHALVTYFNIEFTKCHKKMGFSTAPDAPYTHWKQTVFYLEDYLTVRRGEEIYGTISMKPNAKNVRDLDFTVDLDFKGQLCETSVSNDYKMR
# How it was run: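 E. coli-expressed human PRMT8 (GST removed) was preincubated with compound for 30 min at room temperature in 20 mM Bicine pH 7.6 with TCEP, BSG and Tween 20. 3H-SAM and a biotinylated H4 31-45 peptide were then added, and the reaction was stopped with cold SAM. Labelled peptide was captured on streptavidin Flashplates; % inhibition was calculated against DMSO and SAH controls and fitted to a 3- or 4-parameter curve.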
structure (smiles),measurement,setting,value
"CNCCN(C)Cc1c[nH]nc1-c1ccc(F)cc1 [Compound 2, N^1-((3-(4-fluorophenyl)-1H-pyrazol-4-yl)methyl)-N^1,N^2-dimethylethane-1,2-diamine]",IC50,human PRMT6,96.1 nM
same,IC50,human PRMT8,507 nM
CCCc1ccc(-c2n[nH]cc2CN(C)CCNC)cc1 [Compound 20],IC50,human PRMT6,7.79 nM
same,IC50,human PRMT8,57.7 nM
CNCCN(C)Cc1c[nH]nc1-c1cccc([N+](=O)[O-])c1 [Compound 21],IC50,human PRMT6,12.2 nM
same,IC50,human PRMT8,520 nM
CNCCN(C)Cc1c[nH]nc1-c1cccc(C#N)c1 [Compound 22],IC50,human PRMT6,11.9 nM
same,IC50,human PRMT8,2240 nM
CNCCN(C)Cc1c[nH]nc1-c1ccccc1OC [Compound 23],IC50,human PRMT6,183 nM
same,IC50,human PRMT8,3290 nM
CNCCN(C)Cc1c[nH]nc1-c1cccc(OC)c1 [Compound 24],IC50,human PRMT6,26.2 nM
same,IC50,human PRMT8,888 nM
CNCCN(C)Cc1c[nH]nc1-c1ccc(OC)cc1 [Compound 25],IC50,human PRMT6,10.9 nM
same,IC50,human PRMT8,550 nM
CNCCN(C)Cc1c[nH]nc1-c1cccc(O)c1 [Compound 26],IC50,human PRMT6,22.5 nM
same,IC50,human PRMT8,1500 nM
CNCCN(C)Cc1c[nH]nc1-c1ccc(O)cc1 [Compound 27],IC50,human PRMT6,18.5 nM
same,IC50,human PRMT8,712 nM
CNCCN(C)Cc1c[nH]nc1-c1ccc(CO)cc1 [Compound 28],IC50,human PRMT6,9.1 nM
same,IC50,human PRMT8,95.5 nM
CNCCN(C)Cc1c[nH]nc1-c1ccc(C)cc1C [Compound 29],IC50,human PRMT6,61.7 nM
same,IC50,human PRMT8,2310 nM
CNCCN(C)Cc1cn(CCCC(O)CO)nc1-c1ccc(F)cc1 (centres unmarked) [Compound 30],IC50,human PRMT6,565 nM
same,IC50,human PRMT8,> 50000 nM
"CNCCN(C)Cc1c[nH]nc1-c1cc(C(C)C)cc(C(C)C)c1 [Compound 229, N^1-((3-(3,5-diisopropylphenyl)-1H-pyrazol-4-yl)methyl)-N^1,N^2-dimethylethane-1,2-diamine]",IC50,human PRMT6,201 nM
CNCCN(C)Cc1c[nH]nc1-c1ccc(Oc2cccc(OC)c2)cc1 [Compound 230],IC50,human PRMT6,2.19 nM
CNCCN(C)Cc1c[nH]nc1-c1ccc(Oc2cccc(F)c2)cc1 [Compound 231],IC50,human PRMT6,2.97 nM
CNCCN(C)Cc1c[nH]nc1-c1ccc(Oc2ccccc2)c(C(=O)NC)c1 [Compound 232],IC50,human PRMT6,16.6 nM
CNCCN(C)Cc1c[nH]nc1-c1ccc(Oc2ccccc2)c(C(=O)N(C)C)c1 [Compound 233],IC50,human PRMT6,18.2 nM
CC(C)Cc1cccc(-c2n[nH]cc2CN(C)CCN)c1 [Compound 235],IC50,human PRMT6,176 nM
CNCCN(C)Cc1c[nH]nc1-c1ccc(OCCCO)cc1 [Compound 236],IC50,human PRMT6,14.7 nM
CNCCN(C)Cc1c[nH]nc1-c1ccc(Oc2ccccc2F)cc1 [Compound 237],IC50,human PRMT6,2.13 nM
CNCCN(C)Cc1n[nH]cc1-c1ccc(Oc2cccc(OC)c2)cc1 [Compound 239],IC50,human PRMT6,1.01 nM
CNCCN(C)Cc1n[nH]cc1-c1ccc(Oc2ccccc2)c(C(=O)NC)c1 [Compound 240],IC50,human PRMT6,14.6 nM
CNCCN(C)Cc1n[nH]cc1-c1ccc(Oc2ccccc2)c(C(=O)N(C)C)c1 [Compound 241],IC50,human PRMT6,34.1 nM
CNCCN(C)Cc1n[nH]cc1-c1cc(C(C)C)cc(C(C)C)c1 [Compound 242],IC50,human PRMT6,> 1000 nM
"CNCCN(C)Cc1cn(C)nc1-c1ccc(OC(C)C)cc1 [Compound 243, N^1-((3-(4-isopropoxyphenyl)-1-methyl-1H-pyrazol-4-yl)methyl)-N1,N2-dimethylethane-1,2-diamine]",IC50,human PRMT6,286 nM
CNCCN(C)Cc1cn(Cc2ccncc2)nc1-c1ccc(OC(C)C)cc1 [Compound 245],IC50,human PRMT6,224 nM
CNCCN(C)Cc1cn(Cc2cccnc2)nc1-c1ccc(OC(C)C)cc1 [Compound 246],IC50,human PRMT6,318 nM
CNCCN(C)Cc1cn(Cc2ccccn2)nc1-c1ccc(OC(C)C)cc1 [Compound 247],IC50,human PRMT6,805 nM
CNCCN(C)Cc1cn(CC(=O)OC)nc1-c1ccc(OC(C)C)cc1 [Compound 248],IC50,human PRMT6,831 nM
CNCCN(C)Cc1cn(CC(N)=O)nc1-c1ccc(OC(C)C)cc1 [Compound 251],IC50,human PRMT6,2370 nM
CCn1ncc(CN(C)CCNC)c1-c1ccc(OC(C)C)cc1 [Compound 252],IC50,human PRMT6,102 nM
"CNCCN(C)Cc1cn(CCOC)nc1-c1ccc(OC(C)C)cc1 [Compound 253, N1-((3-(4-isopropoxyphenyl)-1-(2-methoxyethyl)-1H-pyrazol-4-yl)methyl)-N1,N2-dimethylethane-1,2-diamine hydrochloride]",IC50,human PRMT6,748 nM
"CNCCN(C)Cc1cn(C2CCC2)nc1-c1ccc(OC(C)C)cc1 [Compound 254, N1-((1-cyclobutyl-3-(4-isopropoxyphenyl)-1H-pyrazol-4-yl)methyl)-N1,N2-dimethylethane-1,2-diamine hydrochloride]",IC50,human PRMT6,201 nM
CNCCN(C)Cc1cnn(C2CCCC2)c1-c1ccc(OC(C)C)cc1 [Compound 255],IC50,human PRMT6,75.1 nM
C=C(C)C(=O)Nc1cccc(-c2[nH]ncc2CN(C)CCNC)c1 [Compound 257],IC50,human PRMT6,213 nM
C=CC(=O)Nc1cccc(-c2[nH]ncc2CN(C)CCNC)c1 [Compound 258],IC50,human PRMT6,173 nM
CN(CCN)Cc1c[nH]nc1-c1ccc(Oc2ccccc2F)cc1 [Compound 259],IC50,human PRMT6,0.8 nM
CNCCN(C)Cc1c[nH]nc1-c1cc(OC(C)C)cc(C(C)C)c1 [Compound 260],IC50,human PRMT6,243 nM
CNCCN(C)Cc1c[nH]nc1-c1ccc(Oc2cccc(C#N)c2)cc1 [Compound 261],IC50,human PRMT6,2.44 nM
CNCCN(C)Cc1c[nH]nc1-c1ccc(Oc2cccc(C(C)C)c2)cc1 [Compound 262],IC50,human PRMT6,1.46 nM
"CNCCN(C)Cc1c[nH]nc1-c1cc(Cl)c(OC(C)C)c(Cl)c1 [Compound 265, N^1-((3-(3,5-dichloro-4-isopropoxyphenyl)-1H-pyrazol-4-yl)methyl)-N^1,N^2-dimethylethane-1,2-diamine]",IC50,human PRMT6,15.7 nM
CNCCN(C)Cc1nn(C)cc1-c1ccc(OCCCOC)cc1 [Compound 266],IC50,human PRMT6,33 nM
CNCCN(C)Cc1n[nH]cc1-c1ccc(Oc2cccc(C#N)c2)cc1 [Compound 267],IC50,human PRMT6,1.56 nM
CNCCN(C)Cc1n[nH]cc1-c1ccc(Oc2cccc(C(=O)NC)c2)cc1 [Compound 268],IC50,human PRMT6,2 nM
CNCCN(C)Cc1n[nH]cc1-c1ccc(Oc2cccc(F)c2)cc1 [Compound 270],IC50,human PRMT6,1.24 nM
CNCCN(C)Cc1n[nH]cc1-c1cc(CC(C)C)cc(CC(C)C)c1 [Compound 271],IC50,human PRMT6,864 nM
CNCCN(C)Cc1n[nH]cc1-c1cc(OC(C)C)cc(C(C)C)c1 [Compound 272],IC50,human PRMT6,> 1000 nM
CNCCN(C)Cc1n[nH]cc1-c1cc(Cl)c(OC(C)C)c(Cl)c1 [Compound 273],IC50,human PRMT6,31.6 nM
CNCCN(C)Cc1c[nH]nc1-c1ccc(Oc2ccccc2C(=O)NC)cc1 [Compound 274],IC50,human PRMT6,7.57 nM
CNCCN(C)Cc1n[nH]c(C)c1-c1ccc(OC(C)C)cc1 [Compound 275],IC50,human PRMT6,20.9 nM
CNCCN(C)Cc1c(-c2ccc(OCCCOC)cc2)cnn1C [Compound 276],IC50,human PRMT6,> 1000 nM
CNCCN(C)Cc1n[nH]cc1-c1ccc(Oc2cccc(C(C)C)c2)cc1 [Compound 277],IC50,human PRMT6,1.66 nM
"CNCCN(C)Cc1n[nH]cc1-c1ccc(Oc2ccccc2F)cc1 [Compound 279, N^1-((4-(4-(2-fluorophenoxy)phenyl)-1H-pyrazol-3-yl)methyl)-N^1,N^2-dimethylethane-1,2-diamine]",IC50,human PRMT6,1.87 nM
CC(C)Cc1cc(-c2n[nH]cc2CN(C)CCN)ccc1F [Compound 280],IC50,human PRMT6,10.2 nM
CNCCN(C)Cc1c[nH]nc1-c1cc(CC(C)C)cc(CC(C)C)c1 [Compound 281],IC50,human PRMT6,241 nM
CNCCN(C)Cc1c[nH]nc1-c1cc(Cl)c(OCC2CC2)c(Cl)c1 [Compound 282],IC50,human PRMT6,4.75 nM
